The series is described as follows: Fluocinolone acetonide concentration in dog plasma after bilateral intraarticular implants (twelve month toxicity study in beagle dogs). The conditions noted are these: other: bilateral intraarticular implants (knee joints). It is filed as in vivo, Canis familiaris. The method, then: Devices were administered once via bilateral intraarticular implants. The day of surgical implantation was Day 1. The devices were made as follows. Fluocinolone acetonide, USP, was compressed into 1.5 mm diameter tablets using standard pharmaceutical methods. The tablets were placed into preformed cups made from silicone elastomer. Cup size was dependent on dosage form. These cups were attached to […] (PVA) suture tabs. For the 2 mg implants, the surface of the tablet not coated with silicone was attached to a suture tab with PVA solution. For the 6 mg implant, a side of the silicone cup was attached perpendicular to the suture tab. Finally, the assemblies were dip coated with PVA. The implants were then cured at 135° C. for 5 hours and placed within the primary package. The product in the primary package was placed in a self-adhesive pouch and sterilized using gamma irradiation. Surgery was performed on both knee joints of all animals. A lateral skin incision was made to expose the fascia lata overlying the vastus lateralis cranially and the biceps fernoris caudally. The joint was exposed through an incision in the lateral intermuscular septum to expose the femur by anterior retraction of the vastus lateralis and posterior retraction of the biceps femoris. Care was taken not to disrupt the tendon of origin of the long digital extensor as it originates from the lateral femoral condyle. The joint capsule was opened, the patella luxated medially, and the joint was held in full flexion. 2 mg devices were placed in the right leg and 18 mg implants were placed in the left leg. The implants were placed within the anterior intercondyloid fossa, immediately lateral to the origin of the posterior cruciate ligament. The bone may be slightly deepened at this location with a curette to accept the implant. The implant was sutured in place to the posterior cruciate ligament. The joint capsule was closed with 3/0 PDS in a simple interrupted fashion. The retinaculum and intermuscular septum were closed with 2/0 Vicryl in a continuous pattern. The fascia lata were closed with 2/0 PDS, and the subcutaneous tissues with 3/0 PDS, both in a simple continuous pattern. The skin was closed with 3/0 Vicryl in a subcuticular pattern. Blood was collected from a peripheral vessel. Blood volumes represent whole blood and are approximate amounts. The blood samples were processed for plasma, the plasma was extracted, and the plasma was placed immediately in a ≦−70°C. freezer until transferred for analysis.

Each structure is given as a SMILES string. Where two headings read alike, the source gives them in different places.

Regarding `CC1(C)O[C@@H]2C[C@H]3[C@@H]4C[C@H](F)C5=CC(=O)C=C[C@]5(C)[C@@]4(F)[C@@H](O)C[C@]3(C)[C@]2(C(=O)CO)O1` [Fluocinolone Acetonide], the concentration at 3 day (Dog 1001, Day 3, read-out: Assayed Concentrations of Fluocinolone Acetonide in Dog Plasma Samples) is 1.89 ng/mL. Further, the concentration at 21 day reads like this: (Dog 1001, Day 21, read-out: Assayed Concentrations of Fluocinolone Acetonide in Dog Plasma Samples) 0.57 ng/mL; (Dog 3001, Day 21, read-out: Assayed Concentrations of Fluocinolone Acetonide in Dog Plasma Samples) 4.92 ng/mL. Further, the concentration at 7 day (Dog 3001, Day 7, read-out: Assayed Concentrations of Fluocinolone Acetonide in Dog Plasma Samples) is 16.9 ng/mL.

The values above are taken from patent US6936270B2, “Device and method for treating conditions of a joint” (Control Delivery Systems, Inc., priority 2000, dated 2005).
